Positions of bridges follow the written chain, without caps; N, C: chain ends. Non-standard residues stand in square brackets, D forms with d. Residues, ends and D or L forms follow the SMILES beside them. Hyp = O=C(O)[C@@H]1C[C@@H](O)CN1; Nle = CCCC[C@H](N)C(=O)O; Orn = NCCC[C@H](N)C(=O)O
Columns and labels:
[1] = In vitro plasma stability and predicted half-life (HPLC main peak area, Example 3); type: in vitro ADME; details: human plasma (EDTA anticoagulant), 37°C, sampled up to 24 h, predicted half-life calculated with Winolin
Protocol: The modified peptides in this study were designed with non-natural amino acid substitutions at certain non-essential positions to enhance peptide stability and improve druggability. Peptides were dissolved in deionized water to 2 mg/mL, then diluted with acetonitrile to 1 mg/mL and filtered through an organic membrane. 200 µL of the filtrate was transferred to an LC vial as the peptide control. 300 µL of human plasma (comprising EDTA as anticoagulant, Nanjing Senbeijia Biotechnology Co., Ltd., Lot No. SBJ-P-HU011-100 mL) was mixed with 300 µL acetonitrile, centrifuged at 4°C and 12,000 rpm for 5 minutes. The supernatant was filtered through an organic membrane, and 200 µL of the filtrate was transferred to an LC vial as the plasma blank control. For peptide samples, 10 mg of peptide was weighed mixed with 5 mL of human plasma and vortexed thoroughly. 300 µL of peptide-containing plasma was mixed with 300 µL acetonitrile, centrifuged at 4°C and 12,000 rpm for 5 minutes, and the supernatant was filtered through an organic membrane. 200 µL of the filtrate was transferred to an LC vial as the 0 min sample. Peptide-containing plasma was incubated in a 37°C water bath, and samples at other time points were collected using the same procedure as the 0 min sample. For peptides AJ003 and AJ003-1, the sampling time points were 0 min, 5 min, 10 min, 20 min, 30 min, 1 h, 2 h, 4 h, 6 h, 10 h, 12 h, and 24 h. For modified peptides AJ003-34, AJ003-35, AJ003-36, AJ003-37, AJ003-38, AJ003-39, AJ003-40, AJ003-41, and AJ003-42, the time points were 0 min, 10 min, 30 min, 1 h, 4 h, 6 h, 10 h, 12 h, and 24 h. All peptide sample series were analyzed by HPLC, recording the changes in main peak areas over plasma incubation time. Predicted in vitro half-lives were calculated using the pharmacokinetic software Winolin. Due to the presence of tautomers, AJ003 peak areas were difficult to integrate accurately over time. AJ003-1 is an analog of AJ003 in which the threonine at position 5 is substituted with D-threonine; its sequence differs from AJ003 by only one amino acid configuration. […] The in vitro plasma half-lives of modified peptides AJ003-34, AJ003-35, AJ003-36, AJ003-37, AJ003-38, AJ003-39, AJ003-40, AJ003-41, and AJ003-42 were 61.9 h, 45.3 h, 65.3 h, 71.0 h, 26.7 h, 43.0 h, 84.0 h, 30.0 h, and 61.4 h, respectively.

[2] = system: mouse oxaliplatin-induced acute chemotherapy pain model; assay: Mouse oxaliplatin chemotherapy pain model, different doses (Example 7); type: in vivo; details: 2 mg/kg s.c. (AJ003; AJ003-36 medium dose)
Protocol: Oxaliplatin was dissolved in 5% glucose solution to a concentration of 1 mg/mL. For model induction, each male C57 mouse (Hangzhou Ziyuan Experimental Animal Technology Co., Ltd.) received a single intraperitoneal injection of oxaliplatin at 10 mg/kg. Mice in the negative control or blank control group received 5% glucose solution. Approximately one week after model induction, mechanical pain thresholds of the mice were measured three times per mouse, and the average value was calculated. Mice were then randomly assigned to groups based on their pain thresholds. Drug administration was carried out according to the dosing schedule shown in Table 6, with a single dose per mouse. Mechanical pain thresholds were measured at 0.5, 1, 2, 4, 6, and 8 h post-dose. […] Table 6 Dosing Scheme for Oxaliplatin Chemotherapy Pain Model

[3] = system: rat CCI model; assay: Rat CCI (chronic constriction injury) model (Example 9); type: in vivo; details: 1 mg/kg s.c. (AJ003; AJ003-36 medium dose)
Excerpt: Neuropathic pain has many types, and animal models can simulate clinical neuropathic pain. Common SD rat sciatic nerve neuropathic pain models include CCI (Chronic Constriction Injury), SNI (Spared Nerve Injury), SNL (Spinal Nerve Ligation), and CCD (using stainless steel wire through the intervertebral foramen to fix and compress the dorsal root ganglion). Among them, the CCI model is widely used to study neuropathic pain, providing a basis for further research on mechanisms and strategies for nerve injury repair (Wen Xiaojun, Medical Information, Jan. 2018, Vol. 31, No.1). In this example, the CCI model was employed.
Except for the control group, the remaining SD rats were anesthetized via intraperitoneal injection of 10% chloral hydrate saline solution at a dose of 0.3 mL per 100 g body weight, and surgical modeling was performed. The right hind limb skin was carefully incised, muscles were separated, and the sciatic nerve was ligated three times using 4-0 surgical silk, spaced 1 mm apart. Muscles and skin were sutured, and antibiotics were applied to the wound to prevent infection. […] Approximately 10 days post-surgery, plantar pain thresholds were measured three times for each rat, and the average value was calculated. Rats were randomly assigned to groups based on pain thresholds. Drug administration was performed according to Table 8, and plantar pain thresholds were measured at 2 h, 4 h, 6 h, and 8 h after administration.

SMILES: CCCC[C@H](NC(=O)[C@@H](NC(=O)[C@H]1CSSC[C@H](NC(=O)[C@H](CO)NC(=O)CN)C(=O)N[C@@H](CO)C(=O)N[C@H]([C@H](C)O)C(=O)N2C[C@H](O)C[C@H]2C(=O)N2C[C@H](O)C[C@H]2C(=O)N[C@@H](CO)C(=O)N1)C(C)C)C(=O)N[C@@H](Cc1c[nH]c2ccccc12)C(=O)N[C@@H](CCCN)C(N)=O [AJ003-40, GSCS-(D-Thr)-Hyp-Hyp-S-(D-Cys)-V-Nle-W-Orn-NH2 (3,9 disulfide bond)] (H-GSCS[dT][Hyp][Hyp]S[dC]V[Nle]W[Orn]-NH2; disulfide 3-9)
- half-life at 2 mg/mL [1]: 84 h

SMILES: CC(C)C[C@H](NC(=O)[C@@H](NC(=O)[C@H]1CSSC[C@H](NC(=O)[C@H](CO)NC(=O)CN)C(=O)N[C@@H](CO)C(=O)N[C@@H]([C@@H](C)O)C(=O)N2CCC[C@H]2C(=O)N2CCC[C@H]2C(=O)N[C@@H](CO)C(=O)N1)C(C)C)C(=O)N[C@@H](Cc1ccc(O)cc1)C(=O)N[C@@H](CO)C(=O)O [AJ003, GSCSTPPS-(D-Cys)-VLYS (disulfide bond between positions 3 and 9)] (H-GSCSTPPS[dC]VLYS-OH; disulfide 3-9)
- analgesic activity compared with the model group (mechanical pain threshold) ([2]; single dose, 0.5, 1, 2 and 4 h post-dose): significant analgesic activity
- analgesic activity compared with the model group (mechanical pain threshold) ([2]; single dose, 6 h post-dose): no significant effect
- analgesic activity compared with the model group (mechanical pain threshold) ([2]; single dose, 8 h post-dose): no significant effect
- analgesic activity compared with the model group (mechanical pain threshold) ([3]; Day 1 of dosing, 2 h and 4 h): significant analgesic activity
- analgesic activity compared with the model group (mechanical pain threshold) ([3]; Day 1 of dosing, 6 h): no significant difference
- analgesic activity compared with the model group (mechanical pain threshold) ([3]; Day 1 of dosing, 8 h): not significantly different
- analgesic activity compared with the model group (mechanical pain threshold) ([3]; Day 4 of dosing, 2 h and 4 h): significant analgesic activity
- analgesic activity compared with the model group (mechanical pain threshold) ([3]; Day 4 of dosing, 6 h and 8 h): no longer significant
- analgesic activity compared with the model group (mechanical pain threshold) ([3]; Day 7 of dosing, 2 h and 4 h): significant analgesic activity
- analgesic activity compared with the model group (mechanical pain threshold) ([3]; Day 7 of dosing, 6 h): no significant effect
- analgesic activity compared with the model group (mechanical pain threshold) ([3]; Day 7 of dosing, 8 h): not significant
- analgesic activity compared with the model group (mechanical pain threshold) ([3]; Day 10 of dosing, 2 h and 4 h): significant analgesic activity
- analgesic activity compared with the model group (mechanical pain threshold) ([3]; Day 10 of dosing, 6 h): no significant effect
- analgesic activity compared with the model group (mechanical pain threshold) ([3]; Day 10 of dosing, 8 h): not significant
- analgesic activity compared with the model group (mechanical pain threshold) ([3]; Day 14 of dosing, 2 h and 4 h): significant analgesic activity
- analgesic activity compared with the model group (mechanical pain threshold) ([3]; Day 14 of dosing, 6 h): no significant effect
- analgesic activity compared with the model group (mechanical pain threshold) ([3]; Day 14 of dosing, 8 h): not significant

Reference: patent EP4725956A1, “MODIFIED POLYPEPTIDE AND USE THEREOF IN FIELD OF ANALGESIA” (Nanjing Anji Biotechnology Co., Ltd., priority 2023, dated 2024)
